Reference: the supplement of paper PMC4862054

Key:
[1] = system: BT-474; details: 72 h
Outline: (§1)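 In this assay, breast cancer cell lines spent 72 h with compound at 5 concentrations in 10-fold steps over a compound-specific 10,000-fold range. The first readout was cell death by CellTox Green fluorescence, and the second was viability by CellTiter-Glo luminescence, each normalised per plate to 0.1 % DMSO and a positive kill control. EC50 came from the dose-response curves, censored at the top concentration.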

[2] = system: BT-549; details: 72 h
Outline: as §1

[3] = system: CAL-51; details: 72 h
Outline: as §1

[4] = system: CAL-85-1; details: 72 h
Outline: as §1

[5] = system: DU-4475; details: 72 h
Outline: as §1

[6] = system: HCC1599; details: 72 h
Outline: as §1

[7] = system: HCC1937; details: 72 h
Outline: as §1

[8] = system: HDQ-P1; details: 72 h
Outline: as §1

[9] = system: Hs578T; details: 72 h
Outline: as §1

[10] = system: MDA-MB-231; details: 72 h
Outline: as §1

[11] = system: MDA-MB-436; details: 72 h
Outline: as §1

[12] = system: MDA-MB-453; details: 72 h
Outline: as §1

[13] = system: MDA-MB-468; details: 72 h
Outline: as §1

[14] = system: SK-BR-3; details: 72 h
Outline: as §1

[15] = system: BT-549; assay: drug sensitivity score (DSS), CellTox Green (DSS (AUC-based score)); higher = stronger drug effect (viability inhibition or cytotoxicity); extreme values may be limits of the assay; details: incubation time: 72 h
Outline: (§2)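 Each compound occupied 5 concentrations in 10-fold steps over its own 10,000-fold range in 384-well plates, into which breast cancer cell lines were seeded as 20 µl suspension. Following 72 h of incubation, CellTox Green fluorescence (485/520 nm) was measured, and CellTiter-Glo luminescence was measured after 10 min at room temperature. Plates were individually normalised to 0.1 % DMSO and a positive kill control. From the area under the fitted dose-response curve, a drug sensitivity score was calculated.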

[16] = system: CAL-85-1; assay: as above; details: incubation time: 72 h
Outline: as §2

[17] = system: MDA-MB-231; assay: as above; details: incubation time: 72 h
Outline: as §2

[18] = system: MFM-223; assay: as above; details: incubation time: 72 h
Outline: as §2

[19] = system: CAL-120; details: 72 h
Outline: as §1

[20] = system: CAL-148; details: 72 h
Outline: (§3)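 Compound dissolved in 5 µl medium was placed in 384-well plates before 20 µl of breast cancer cell suspension was added, and the plates were incubated for 72 h. Cells then received 2.5 µl CellTiter-Blue for 2 h at 37 °C, and fluorescence was read at 560/590 nm. EC50 values come from percent-inhibition dose-response fits that were censored at the highest concentration, with plates normalised to vehicle and a positive kill control and rows with a zero drug sensitivity score excluded.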

[21] = system: CAL-51; details: 72 h; remark: listed apart in the source
Outline: as §3

[22] = system: CAL-85-1; details: 72 h; remark: listed apart in the source
Outline: as §3

[23] = system: CAL-120; details: 72 h; remark: listed apart in the source
Outline: as §3

[24] = system: HCC1143; details: 72 h
Outline: as §3

[25] = system: Hs578T; details: 72 h; remark: listed apart in the source
Outline: as §3

[26] = system: MDA-MB-468; details: 72 h; remark: listed apart in the source
Outline: as §3

[27] = system: SK-BR-3; details: 72 h; remark: listed apart in the source
Outline: as §3

[28] = system: MFM-223; details: 72 h
Outline: as §1

[29] = system: DU-4475; details: 72 h; remark: listed apart in the source
Outline: as §3

[30] = system: MDA-MB-453; details: 72 h; remark: listed apart in the source
Outline: as §3

[31] = system: HCC1599; details: 72 h; remark: listed apart in the source
Outline: as §3

[32] = system: MFM-223; details: 72 h; remark: listed apart in the source
Outline: as §3

[33] = system: BT-549; details: 72 h; remark: listed apart in the source
Outline: as §3

[34] = system: MDA-MB-436; details: 72 h; remark: listed apart in the source
Outline: as §3

[35] = system: HCC1937; details: 72 h; remark: listed apart in the source
Outline: as §3

[36] = system: MDA-MB-231; details: 72 h; remark: listed apart in the source
Outline: as §3

| SMILES | EC50, CellTiter-Glo [1] | EC50, CellTiter-Glo [2] | EC50, CellTiter-Glo [3] | EC50, CellTiter-Glo [4] | EC50, CellTiter-Glo [5] | EC50, CellTiter-Glo [6] | EC50, CellTiter-Glo [7] | EC50, CellTiter-Glo [8] | EC50, CellTiter-Glo [9] | EC50, CellTiter-Glo [10] | EC50, CellTiter-Glo [11] | EC50, CellTiter-Glo [12] | EC50, CellTiter-Glo [13] | EC50, CellTiter-Glo [14] | drug sensitivity score [15] | drug sensitivity score [16] | drug sensitivity score [17] | drug sensitivity score [18] | EC50, CellTiter-Glo [19] | EC50, CellTiter-Blue viability [20] | EC50, CellTiter-Blue viability [21] | EC50, CellTiter-Blue viability [22] | EC50, CellTiter-Blue viability [23] | EC50, CellTiter-Blue viability [24] | EC50, CellTiter-Blue viability [25] | EC50, CellTiter-Blue viability [26] | EC50, CellTiter-Blue viability [27] | EC50, CellTiter-Glo [28] | EC50, CellTiter-Blue viability [29] | EC50, CellTiter-Blue viability [30] | EC50, CellTiter-Blue viability [31] | EC50, CellTiter-Blue viability [32] | EC50, CellTiter-Blue viability [33] | EC50, CellTiter-Blue viability [34] | EC50, CellTiter-Blue viability [35] | EC50, CellTiter-Blue viability [36] |
| --- | --- | --- | --- | --- | --- | --- | --- | --- | --- | --- | --- | --- | --- | --- | --- | --- | --- | --- | --- | --- | --- | --- | --- | --- | --- | --- | --- | --- | --- | --- | --- | --- | --- | --- | --- | --- |
| CC1(COc2ccc3c(c2)ncn3-c2ccc3cccc(N4CCC(N)CC4)c3n2)COC1 [Crenolanib] | 3980 nM | 1670 nM | 2630 nM | 3970 nM | 3330 nM | > 10000 nM | > 10000 nM | 5070 nM | 3340 nM | 4020 nM | 4110 nM | 5370 nM | 4750 nM | 4180 nM | 4.07 | 6.6 | 6.39 | 0 | – | – | – | – | – | – | – | – | – | – | – | – | – | – | – | – | – | – |
| CN(Cc1cnc2nc(N)nc(N)c2n1)c1ccc(C(=O)N[C@@H](CCC(=O)O)C(=O)O)cc1 [Methotrexate] | 7230 nM | – | 19.6 nM | 2020 nM | – | 17800 nM | 20.4 nM | 12.9 nM | 29000 nM | 6840 nM | 1460 nM | – | – | – | 0 | 0.579 | 0 | 0 | 809 nM | 46.5 nM | 84.8 nM | 71.7 nM | 15.9 nM | 15.2 nM | 51.5 nM | 25.1 nM | 23.5 nM | – | – | – | – | – | – | – | – | – |
| Cc1cc(Nc2nc(N[C@@H](C)c3ncc(F)cn3)ncc2Cl)[nH]n1 [AZD1480] | – | – | – | – | – | – | – | – | – | – | – | – | – | – | 0.354 | 0 | 0 | 1.25 | – | – | – | – | – | – | – | – | – | 94.6 nM | 443 nM | 782 nM | 213 nM | 64.8 nM | – | – | – | – |
| CCN(CC)CCCC(C)Nc1ccnc2cc(Cl)ccc12 (stereo unspecified) [Chloroquine] | 14500 nM | 15000 nM | 6560 nM | 11300 nM | 18700 nM | 14100 nM | 15300 nM | 20700 nM | 30200 nM | 16300 nM | 16300 nM | 4030 nM | 10600 nM | 4910 nM | 1.78 | 7.92 | 11.6 | 9.2 | 9490 nM | – | – | – | – | – | – | – | – | 13700 nM | – | – | – | – | – | – | – | – |
| CC[C@H](CO)Nc1nc(NCc2ccccc2)c2ncn(C(C)C)c2n1 [Roscovitine] | – | – | – | – | – | – | – | – | – | – | – | – | – | – | – | – | – | – | – | – | – | – | – | > 10000 nM | 7660 nM | – | – | – | – | – | 2290 nM | – | 684 nM | 2500 nM | – | – |
| CO[C@@]12[C@H](COC(N)=O)C3=C(C(=O)C(C)=C(N)C3=O)N1C[C@@H]1N[C@@H]12 [Mitomycin C] | – | 1680 nM | 1140 nM | 2420 nM | – | – | – | – | – | – | 7150 nM | – | 3860 nM | > 10000 nM | 0 | 0 | 0 | 1.79 | > 10000 nM | 2940 nM | 5790 nM | 3920 nM | 7160 nM | 2380 nM | 3560 nM | 2270 nM | 1490 nM | – | 5070 nM | 3420 nM | 1370 nM | 3790 nM | 2970 nM | 2680 nM | 360 nM | 1080 nM |
| O=C(CCCCCCC(=O)Nc1ccccc1)NO [Vorinostat] | 3760 nM | 7340 nM | 2180 nM | 2320 nM | 2300 nM | 3990 nM | 6280 nM | 8320 nM | 6670 nM | 3170 nM | – | 1180 nM | 1200 nM | 3470 nM | 0.875 | 0 | 8.86 | 0 | 8470 nM | 3250 nM | – | 3890 nM | 1720 nM | 2590 nM | 3080 nM | 1480 nM | 617 nM | 5670 nM | 9000 nM | 960 nM | 3270 nM | 2050 nM | 2860 nM | – | 2480 nM | 3110 nM |
| CNC(=O)c1ccccc1Sc1ccc2c(/C=C/c3ccccn3)n[nH]c2c1 [Axitinib] | – | – | 465 nM | – | – | 881 nM | – | 4770 nM | – | – | 3040 nM | – | 3880 nM | – | 0 | 0 | 0 | 0 | 3570 nM | 1880 nM | 1620 nM | 1250 nM | – | 2570 nM | – | 6660 nM | – | 348 nM | 2250 nM | 657 nM | – | 163 nM | 2180 nM | 91.7 nM | 1370 nM | 1170 nM |
| C/C(=C\c1csc(C)n1)[C@@H]1C[C@@H]2O[C@]2(C)CCC[C@H](C)[C@H](O)[C@@H](C)C(=O)C(C)(C)[C@@H](O)CC(=O)N1 [Ixabepilone] | 808 nM | 38.2 nM | 23 nM | 660 nM | – | – | – | – | – | – | – | – | 31.4 nM | – | 5.33 | 4.02 | 0.915 | 0 | – | 601 nM | > 1000 nM | 947 nM | 333 nM | 371 nM | 625 nM | 834 nM | 274 nM | – | 642 nM | 515 nM | – | 322 nM | 510 nM | 173 nM | 371 nM | 84.3 nM |
